# Measured values: patent US20190083508A1, “USE OF OX1R ANTAGONISTS FOR THE TREATMENT OF INFLAMMATORY BOWEL DISEASES” (Inserm (Institut National De La Sante et de la Recherche …, priority 2014, published 2019)
# No end group written: not given here.
# Legend:
# DSS-treated mice = assay: Length of colon from DSS-treated mice mimicking acute ulcerative colitis; assay type: in vivo; settings: 5% DSS in drinking water; daily ip 20 μg; one week
# Description: FIG. 8: Effect of daily ip inoculation of OxA, Suvorexant and Almorexant on the length of colon from DSS- (dextran sulfate sodium) treated mice mimicking the acute ulcerative colitis disease. A. Mice were treated with 5% (w/v) DSS in drinking water and daily injected with 20 μg of OxA (OXA IP), 20 μg of Suvorexant (Suvo) or 20 μg of Almorexant (Almo). Control (wt) or treated DSS mice (DSS) were daily injected with 100 μl PBS. After one week of treatment, mice were sacrificed and the length of colon which represented a good marker of inflammation state, was measured. […] B. quantification of colon length from 5 different DSS-treated mice injected with OxA (DSS+OXA IP), Almorexant (DSS+Almo), Suvorexant (DSS+Suvo) or not injected (WT and DSS). NS, no significant; *, p<0.05; ** p<0.001
# The inventors also investigated the effect of daily intraperitoneal inoculation of OxA, Suvorexant and Almorexant on the length of colon from DSS- (dextran sulfate sodium) treated mice mimicking the acute ulcerative colitis disease.
# [1] = tested on: colon adenocarcinoma HT-29 cells; assay: Cell growth determination, HT-29 cells; assay type: cell-based; settings: 48 hr, 0.1 μM OxA or increasing concentrations of SB408124
# Description: (§1) FIG. 6: Determination of the inhibition of cellular growth of HEK-OX1R cells and colon adenocarcinoma cells (HT-29) induced by 0.1 μM of OxA or various concentrations of SB408124 antagonist. HEK-OX1R cells (black column) and HT-29 cells (white column) were incubated with 0.1 μM of OxA and indicated increasing concentration of SB408124, and cells were counted after 48 hr incubation. Results are expressed as the percentage of total viable cells.
# (§2) HEK-OX1R cells or colon adenocarcinoma HT-29 cells were seeded, grown and maintained at 37° C. in a humidified 5% CO2/air incubator. After 24 hr culture, cells were treated with or without Orexin-A peptide or SB408124 antagonist, previously dissolved in DMSO, to be tested at the concentration indicated in the figure legends. After 48 hr of treatment, adherent cells were harvested by TriplE (Life Technologies, Saint Aubin, France) and manually counted. Apoptosis was determined using the Guava PCA system and the Guava nexin kit.
# HEK-OX1R cells = assay: Cell growth determination, HEK-OX1R cells; assay type: cell-based; settings: 48 hr, 0.1 μM OxA or increasing concentrations of SB408124
# Description: as §1, §2
# OX1R = molecular target: T1, OX1R (Homo sapiens, UniProt O43613); assay: Ca2+ mobilization assay in HEK-OX1R cells (FluoForte); assay type: cell-based
# T1 construct: HEK cells expressing recombinant native OX1R (HEK-OX1R); expressed in transfected cells; host or cells: HEK cells (HEK-OX1R)
# T1 sequence (O43613 1-425): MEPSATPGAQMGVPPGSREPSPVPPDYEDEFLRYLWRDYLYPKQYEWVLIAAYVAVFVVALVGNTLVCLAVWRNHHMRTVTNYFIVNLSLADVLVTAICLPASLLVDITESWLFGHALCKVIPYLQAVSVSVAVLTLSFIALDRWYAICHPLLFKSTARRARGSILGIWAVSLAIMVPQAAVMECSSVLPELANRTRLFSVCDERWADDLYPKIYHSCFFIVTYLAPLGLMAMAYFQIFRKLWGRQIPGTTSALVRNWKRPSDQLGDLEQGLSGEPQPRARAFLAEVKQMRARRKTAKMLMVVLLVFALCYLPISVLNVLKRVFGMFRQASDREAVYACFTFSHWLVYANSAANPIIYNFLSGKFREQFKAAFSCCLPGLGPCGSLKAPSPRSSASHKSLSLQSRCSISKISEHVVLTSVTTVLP
# Description: FIG. 5: Effect of orexin-A and SB408124 antagonist on Ca2+ mobilization in HEK-OX1R cells. Top, HEK-OX1R cells were incubated with fluorescence probe (FluoForte) for 45 min. at 37° C. according to FluoForte calcium assay kit (Enzo Life Sciences). 1 μM of OxA was added to cells and fluorescence emission was measured on TECAN Infinite 200 fluorospectrophotometer. Bottom, HEK-OX1R cells were incubated with fluorescence probe (FluoForte) for 45 min. at 37° C. and then incubated with 1 μM of SB408124 for 1 h at 37° C. After pre-incubation, 1 μM of OxA was added to cells and fluorescence emission was measured.
# HEK cells expressing recombinant native OX1R (HEK-OX1R) cells were seeded in 96-wells plate, grown and maintained at 37° C. in a humidified 5% CO2/air incubator. 80,000 cells/well were incubated with FluoForte probe according to FluoForte calcium assay kit (ENZO life Sciences, Farmingdale, N.Y., USA) for 45 min. at 37° C. and then incubated with or without 1 μM of […] antagonist for 1 h at 37° C. After pre-incubation, 1 μM of OxA was added and fluorescence was determined using TECAN Infinite 200 fluorospectrophotometer.
# [2] = tested on: colon adenocarcinoma HT-29 cells; assay: Apoptosis assay (annexin V-PE binding), HT-29 cells; assay type: cell-based; settings: 48 h, 1 μM orexin-A or various concentrations of SB408124
# Description: FIG. 7: Effect of orexin-A and SB408124 antagonist on apoptosis in OX1R expressing colon adenocarcinoma cells, HT-29. HT-29 cells were challenged with 1 μM orexin-A or various concentration of SB408124 for 48 h. Apoptosis was measured by determination of annexin V-PE binding, and results are expressed as the percentage of apoptotic cells. Results are means±SE of three experiments. ***P<0.001.
# as §2
# EXCY2 mice = assay: Spontaneous UC-like colitis in EXCY2 mice (IL10-/-; Nox1-/-), colon histology; assay type: in vivo; settings: 10 week-old EXCY2 mice, 0.22 μmoles/kg, 2 IP/week during 3 weeks
# Description: FIG. 4: Histological aspect of colon mucosa in OxA treated EXCY2 mice (right) and non-treated EXCY2 mice (left). EXCY2 mice genetically invalidated for IL10 and Nox1 genes (IL10^−/− and Nox1^−/−) which develop spontaneous UC-like disease, were treated with OxA (0.22 μmoles/kg, 2 intraperitoneal injection/week for 21 days) (right) or untreated (left). After animal sacrifice colons were resected and histologic analysis was performed.
# DSS mouse model has been extensively used to decipher the mucosal inflammation in IBD, UC pathogenesis, and preclinical studies. However, mice show differential susceptibilities and responsiveness to DSS-induced colitis depending on their genetic background, gender. DSS model is a faithful model of inflammation but departs from Ulcerative Colitis in part for lack of the inflammation gradient from the rectum to the proximal colon usually observed in UC, any deregulation of ER stress in goblet cells known to be an early etiological factor of UC, and no digestive or extra-digestive complications of UC such as cholangitis and colorectal cancer, respectively. The use of genetically modified mice model represents a good alternative to chemically-induced colitis mice model. […]
# (§3) Balb/c mice were orally treated by 5% (w/v) of Dextran Sulfate Sodium (DSS) for 7 days. […] Weight and colitis symptoms (diarrhea, blood in the stool . . . ) for each mouse was daily measured. […]
# DSS-induced colitis mice [3] = assay: DSS-induced colitis mice, Disease Activity Index; assay type: in vivo, Balb/c mice; settings: 5% DSS orally 7 days; daily ip 0.22 μmoles/kg
# Text: FIG. 2: OXA ameliorates the DAI (weight and colitis score) of DSS-induced colitis mice. Mice were orally treated with 5% DSS for 7 days in the presence or in the absence of daily intraperitoneal injection of OxA (0.22 μmoles/kg). Left, determination of gain or loss of weight in the absence of DSS treatment (Control, ▴), in the presence of DSS treatment (DSS, ▪) and in the presence of DSS associated to OxA treatment (DSS+OxA, ●). Right, evaluation of Disease Activity Index (DAI) scored by measuring weight, length of colon, diarrhea and blood presence in the stool in DSS untreated control mice (Control, ▴), in DSS treated mice (DSS, ▪) and in DSS treated mice associated to OxA treatment (DSS+OxA, ●).
# Based on these observations, we have investigated the effect of Orexin A (OxA) on acute inflammation in mice treated with Dextran Sulfate Sodium (DSS). OxA was preferentially chosen in these experiments since the presence of two disulphide bridges confers it more stability. DSS induces acute colitis characterized by weight loss, bloody diarrhea, intestinal ulcerations and infiltrations with granulocytes.
# as §3
# DSS-induced colitis mice [4] = assay: Cytokine assays in colon extracts of DSS-induced colitis mice; assay type: in vivo; settings: daily ip 0.22 μmoles/kg, 7 days
# Description: FIG. 3: OXA effects on cytokines secretion in DSS-induced colitis mice. Right, Colons of DSS untreated mice (white), DSS treated mice (gray) and DSS treated mice associated to OxA treatment (black) were resected after animal sacrifice. Then, protein extraction was performed by tissue disruption. Cytokines were determined using Cytokine CBA kits (see Material and Methods). Left, after colon resection, RNA were extracted from colonic tissue and qPCR was performed using specific oligonucleotides for IL8 homolog and IL1B.
# These observations are confirmed by histologic aspect of colon epithelium (histologic scoring by a GI pathologist). Thus, OxA has probably an anti-inflammatory effect on DSS-induced colitis. To confirm this hypothesis, we have investigated the anti-inflammatory effect of OxA treatment on cytokines secretion in colon extracts from DSS-treated mice. […] In contrast, OxA has no effect on INFγ, IL10, and IL12 cytokine secretion in colon extracts (FIG. 3).
# Balb/c mice were orally treated by 5% (w/v) of Dextran Sulfate Sodium (DSS) for 7 days. Orexin treatment was carried out in DSS treated mice by daily intraperitoneal injection of OxA (0.22 μmoles/kg) for 7 days. Weight and colitis symptoms (diarrhea, blood in the stool . . . ) for each mouse was daily measured. After 7 days of treatment, animals were sacrificed and colons were resected to further analyses (size, histological aspect, cytokine assays). […] mice (IL10^−/− and Nox1^−/−) which develop a spontaneous colitis at 6/7 weeks of age were treated or not with OxA (0.22 μmoles/kg, 2 intraperitoneal injection/week for 21 days). After animal sacrifice colons were resected and histologic analysis was performed.
# Mice were sacrificed and colons were resected. Proteins were extracted from colon by tissue disruption in PBS using Tissue Lyser (Qiagen, Courtaboeuf, France). Various cytokines (see FIG. 3) were determined using Cytokine CBA kits (BD Sciences, Le Pont de Claix, France).
compound,measurement,setting,value
CNC(=O)[C@@H](c1ccccc1)N1CCc2cc(OC)c(OC)cc2[C@@H]1CCc1ccc(C(F)(F)F)cc1 [Almorexant],Protection from DSS induced acute ulcerative colitis (colon length),DSS-treated mice,protect mice from DSS induced acute ulcerative colitis disease
Cc1cc(NC(=O)Nc2ccc(N(C)C)cc2)c2cc(F)cc(F)c2n1 [SB408124],Inhibition of cellular growth,[1],induced also a strong inhibition in a dose-dependent manner of cellular growth
same,Inhibition of cellular growth,HEK-OX1R cells,induced also a strong inhibition in a dose-dependent manner of cellular growth
same,Effect on OxA-induced Ca2+ mobilization (antagonist effect),"OX1R; 1 μM preincubation 1 h, then 1 μM OxA",totally abolished the induced-Ca^2+ mobilization
same,Apoptosis (annexin V-PE binding),[2],able to induce in a dose-dependent manner cell apoptosis
Cc1ccc(-n2nccn2)c(C(=O)N2CCN(c3nc4cc(Cl)ccc4o3)CC[C@H]2C)c1 [Suvorexant],Protection from DSS induced acute ulcerative colitis (colon length),DSS-treated mice,protect mice from DSS induced acute ulcerative colitis disease
"OxA: Orexin A peptide with two disulphide bridges, agonist of OX1R (QPLPDCCRQKTCSCRLYELLHGAGNHAAGILTL; disulfide (positions not given here); ends not checked; also: two disulphide bridges, places not given here; UniProt O43612 34-66, looked up)",Inhibition of cellular growth,[1],induced a strong inhibition of cellular growth
same,Inhibition of cellular growth,HEK-OX1R cells,induced a strong inhibition of cellular growth
same,Ca2+ mobilization (agonist effect),OX1R; 1 μM,induced a large and transient Ca^2+ mobilization
same,Protection from DSS induced acute ulcerative colitis (colon length),DSS-treated mice,protect mice from DSS induced acute ulcerative colitis disease
same,Effect on severe spontaneous colitis,EXCY2 mice,alleviated severe colitis
same,"Histological aspect of colonic mucosa (crypts aspect, crypt size, goblet cells, immune cells infiltration)",EXCY2 mice; vs vehicle treated,exhibited a normal colonic mucosa
same,"Disease Activity Index (DAI) scored by weight, length of colon, diarrhea and blood in the stool",DSS-induced colitis mice [3],ameliorates
same,Apoptosis (annexin V-PE binding),[2],induced an apoptotic effect
same,IL6 secretion in colon extracts,DSS-induced colitis mice [4],reduces the secretion
same,IL10 secretion in colon extracts,DSS-induced colitis mice [4],has no effect
same,IL12 secretion in colon extracts,DSS-induced colitis mice [4],has no effect
same,INFγ secretion in colon extracts,DSS-induced colitis mice [4],has no effect
same,TNFα secretion in colon extracts,DSS-induced colitis mice [4],reduces the secretion
same,IL1B in colon extracts,DSS-induced colitis mice [4]; qPCR per FIG. 3,reduces the secretion
same,IL8 homolog in colon extracts,DSS-induced colitis mice [4]; qPCR per FIG. 3,reduces the secretion
